From ChEMBL document CHEMBL1158209, “Sindurol and Nephthoside: New Tetraprenyltoluquinols from the Soft Coral Sinularia dura and Nephthea sp” (J Nat Prod, 1996)
In brackets after ≈: the same amount, converted by molar mass.

What follows are molecules tested on P388 (assay: Cytotoxicity against mouse P388 cells).
Assay type: functional, cell-based

In order of falling IC50:
1. CC(C)=CCC/C(C)=C/CC/C(C)=C/CC/C(C)=C/Cc1cc(O)c(C)cc1O  2 µg/mL (≈ 5.04 µM)
2. CC(=O)O[C@@H]1CO[C@@H](Oc2cc(C/C=C(\C)CC/C=C(\C)CC/C=C(\C)CCC=C(C)C)c(O)cc2C)[C@@H](O)[C@@H]1O [NEPHTHOSIDE MANOACETATE]  2 µg/mL (≈ 3.5 µM)
3. CC(C)=CCC/C(C)=C/CC/C(C)=C/CC/C(C)=C/Cc1cc(O[C@@H]2OC[C@@H](O)[C@@H](O)[C@@H]2O)c(C)cc1O [NEPHTHOSIDE]  2 µg/mL (≈ 3.78 µM)
4. CC(=O)OCC(O)(C(Cc1cc(O)c(C)cc1O)OC(C)=O)C12CCC(C)(CC(/C=C(\C)CCC=C(C)C)O1)O2 (centres undefined) [SINDUROL]  1.2 µg/mL (≈ 2.14 µM)
